Data published in ChEMBL document CHEMBL1143471, “Synthesis of [1,2,4]triazolo[1,5-a]pyrazines as adenosine A2A receptor antagonists” (Bioorg Med Chem Lett, 2005).
pKi: −log10 of the molar value.

Assays:
[1] = target: Adenosine receptor A2a (Rattus norvegicus, UniProt P30543); experiment: biochemical
[2] = target: T1, Adenosine receptor A1 (Rattus norvegicus, UniProt P25099); experiment: biochemical
T1 sequence (P25099 whole entry): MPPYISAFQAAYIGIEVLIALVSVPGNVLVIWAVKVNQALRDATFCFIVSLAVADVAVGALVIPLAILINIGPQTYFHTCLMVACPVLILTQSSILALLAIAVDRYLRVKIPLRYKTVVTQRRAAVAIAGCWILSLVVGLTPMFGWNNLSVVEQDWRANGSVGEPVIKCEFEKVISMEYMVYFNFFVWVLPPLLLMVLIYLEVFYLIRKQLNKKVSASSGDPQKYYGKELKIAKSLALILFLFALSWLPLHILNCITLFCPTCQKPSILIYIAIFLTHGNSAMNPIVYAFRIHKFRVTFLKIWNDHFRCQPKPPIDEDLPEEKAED

Adenosine receptor A2a, sequence (P30543 whole entry): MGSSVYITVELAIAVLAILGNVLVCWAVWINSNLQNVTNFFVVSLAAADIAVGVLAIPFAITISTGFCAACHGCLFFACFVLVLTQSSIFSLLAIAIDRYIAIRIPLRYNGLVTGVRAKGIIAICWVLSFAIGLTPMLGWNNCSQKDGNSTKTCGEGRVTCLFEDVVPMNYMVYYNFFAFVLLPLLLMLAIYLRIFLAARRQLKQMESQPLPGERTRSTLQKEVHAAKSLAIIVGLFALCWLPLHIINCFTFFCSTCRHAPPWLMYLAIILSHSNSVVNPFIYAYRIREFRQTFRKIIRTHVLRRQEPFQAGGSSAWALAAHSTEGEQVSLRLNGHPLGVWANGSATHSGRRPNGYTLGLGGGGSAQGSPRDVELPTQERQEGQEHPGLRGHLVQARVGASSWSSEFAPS

Structure (SMILES)	pKi [1]	pKi [2]
CC(C)c1cccc(-c2cn3nc(-c4ccco4)nc3c(N)n2)c1	6.17	–
CN(C)c1ccc(-c2cn3nc(-c4ccco4)nc3c(N)n2)cc1	< 6.00	–
Nc1nc(-c2cccc(C(F)(F)F)c2)cn2nc(-c3ccco3)nc12	6.66	–
Nc1nc(-c2ccc(C(=O)N3CCOCC3)cc2)cn2nc(-c3ccco3)nc12	7.72	5.74
CS(=O)(=O)c1cccc(-c2cn3nc(-c4ccco4)nc3c(N)n2)c1	6.96	–
N#Cc1ccc(-c2cn3nc(-c4ccco4)nc3c(N)n2)cc1	< 6.00	–
Nc1nc(-c2ccc([N+](=O)[O-])cc2)cn2nc(-c3ccco3)nc12	< 6.00	–
Nc1nc(-c2cccc(C(=O)N3CCOCC3)c2)cn2nc(-c3ccco3)nc12	6.62	> 6.60
Nc1nc(C(=O)NCCCc2ccccc2)cn2nc(-c3ccco3)nc12	7.55	6.62
Nc1cccc(-c2cn3nc(-c4ccco4)nc3c(N)n2)c1	6.20	–
Nc1nc(-c2cccc(C(=O)O)c2)cn2nc(-c3ccco3)nc12	< 6.00	–
CCOC(=O)c1cccc(-c2cn3nc(-c4ccco4)nc3c(N)n2)c1	6.43	–
Nc1nc(-c2cccc3ccccc23)cn2nc(-c3ccco3)nc12	6.38	–
CC(=O)c1cccc(-c2cn3nc(-c4ccco4)nc3c(N)n2)c1	7.12	–
NC(=O)c1cccc(-c2cn3nc(-c4ccco4)nc3c(N)n2)c1	6.96	–
Nc1nc(C(=O)N2CCN(Cc3ccccc3)CC2)cn2nc(-c3ccco3)nc12	< 6.60	< 6.60
CCCCNC(=O)c1cn2nc(-c3ccco3)nc2c(N)n1	9.00	6.92
CN(Cc1ccccc1)C(=O)c1cn2nc(-c3ccco3)nc2c(N)n1	7.57	6.80
CC(=O)Nc1cccc(-c2cn3nc(-c4ccco4)nc3c(N)n2)c1	6.80	–
CN(C)c1cccc(-c2cn3nc(-c4ccco4)nc3c(N)n2)c1	6.85	–
Nc1nc(C(=O)NCc2ccccc2)cn2nc(-c3ccco3)nc12	8.70	7.85
Nc1nc(C(=O)NCCc2ccc(O)cc2)cn2nc(-c3ccco3)nc12	9.00	6.49

Structure (SMILES)	pKi [1]	pKi [2]
Nc1nc(-c2cccc3cccnc23)cn2nc(-c3ccco3)nc12	6.60	–
Nc1nc(-c2cncnc2)cn2nc(-c3ccco3)nc12	6.44	–
Nc1nc(C(=O)N2CCOCC2)cn2nc(-c3ccco3)nc12	< 6.60	< 6.60
CC(C)NC(=O)c1cccc(-c2cn3nc(-c4ccco4)nc3c(N)n2)c1	6.85	6.54
Nc1nc(-c2ccc(C(F)(F)F)cc2)cn2nc(-c3ccco3)nc12	< 6.00	–
Nc1nc(-c2ccc(C(=O)NCCCn3ccnc3)cc2)cn2nc(-c3ccco3)nc12	6.48	< 6.60
Nc1nc(-c2cccnc2)cn2nc(-c3ccco3)nc12	6.34	–
N#Cc1cccc(-c2cn3nc(-c4ccco4)nc3c(N)n2)c1	6.80	–
Nc1nc(-c2cccc(C(=O)NCCc3ccc(O)cc3)c2)cn2nc(-c3ccco3)nc12	6.74	< 6.60
Nc1nc(-c2cccc(C(=O)N3CCN(c4ccncc4)CC3)c2)cn2nc(-c3ccco3)nc12	6.14	8.52
Nc1nc(-c2cccc(C(=O)N3CCN(Cc4ccccc4)CC3)c2)cn2nc(-c3ccco3)nc12	6.17	< 6.60
Nc1nc(C(=O)N2CCN(c3ccncc3)CC2)cn2nc(-c3ccco3)nc12	< 6.60	< 6.60
Nc1nc(-c2ccc(CO)cc2)cn2nc(-c3ccco3)nc12	< 6.00	–
Nc1nc(-c2cccc(CO)c2)cn2nc(-c3ccco3)nc12	6.33	–
CCN(CC)C(=O)c1cccc(-c2cn3nc(-c4ccco4)nc3c(N)n2)c1	9.00	7.39
Nc1ccc(-c2cn3nc(-c4ccco4)nc3c(N)n2)cc1	< 6.00	–
Nc1nc(-c2ccc(C(=O)NCCc3ccc(O)cc3)cc2)cn2nc(-c3ccco3)nc12	6.08	7.44
COc1cccc(-c2cn3nc(-c4ccco4)nc3c(N)n2)c1	6.57	–
CCOC(=O)c1ccc(-c2cn3nc(-c4ccco4)nc3c(N)n2)cc1	< 6.00	–
CN(C)C(=O)c1cccc(-c2cn3nc(-c4ccco4)nc3c(N)n2)c1	7.15	6.92
Nc1nc(-c2cccc([N+](=O)[O-])c2)cn2nc(-c3ccco3)nc12	6.34	–
Nc1nc(-c2ccco2)cn2nc(-c3ccco3)nc12	6.40	–
